Results taken from US4162311A, “Medicinal preparation with pronounced vegetotropic and antiepileptic effect for treating psychoneurotic disorders” (priority 1977, dated 1979).
Entries after “also recorded” stand apart in the source; their conditions may differ. Where two headings read alike, the source gives them in different places.

Columns and labels:
[1] = tested on: convulsant effects of corasole and caffeine; conditions: mice; comparison drug; cited from earlier work
[2] = cited from earlier work; for effect of other treatments: aforesaid diseases; for vegetotropic and antiepileptic effect: among tranquilizers; for relaxing effect and sluggishness: taken over prolonged periods of time
[3] = tested on: serotonin content in brain tissue; experiment: serotonin content in brain tissue of mice; format: in vivo
[4] = chemical stability / shelf life; format: physicochemical
Excerpt: Hydrazide of diphenylphosphenylacetic acid is a bitter-tasting odorless white powder.

[5] = tested on: sympathoadrenal and hypothalamohypophysioadrenal systems; experiment: clinical studies of vegetovascular dystonia; format: in vivo, patients; conditions: 32 cases
[6] = local irritant effect; conditions: in vivo
[7] = analgetic effect in mice
[8] = behavior of rabbits after intramuscular administration; format: in vivo; conditions: 50 mg/kg
[9] = tested on: nicotine-induced convulsions; experiment: nicotine-induced convulsions in mice; format: in vivo
[10] = sedative effect / depression in animals; format: in vivo, mice and rats
[11] = tested on: convulsions caused by corasole, strychnine, and electroconvulsion therapy; experiment: convulsions caused by corasole, strychnine and electroconvulsion therapy; format: in vivo, animals
Excerpt: (§2) As regards the effects of the proposed preparation on convulsions induced in animals in the course of an experiment, the mechanism of action appears to be more complicated.

[12] = tested on: orientating reaction in mice; experiment: orientating reaction in mice; format: in vivo; conditions: intra-abdominal, 1/8 DMT, one hour before
[13] = clinical investigation in neurotic and psychic disorders
[14] = body temperature of mice; format: in vivo; conditions: for decrease of body temperature (hypothermal effect): 200 mg/kg (DMT)
[15] = tested on: separated intestines; blood pressure and respiration of rabbits; experiment: peripheral adrenolytic effect: separated intestines, blood pressure and respiration of rabbits
[16] = clinical: temporal lobe epilepsy; format: in vivo, patients
Excerpt: Good results were also obtained in treating 18 cases of temporal lobe epilepsy with predominant psychosensory, psychomotor, vegetative and emotional fits. For a number of years, all the patients had been given anticonvulsants and tranquilizers which were derivatives of benzodiazepin. In most of these cases conventional treatment had been ineffective. The proposed preparation brought about a dramatic change: in 14 cases the attacks either ceased completely or their frequency was reduced by more than half.

[17] = tested on: action of serotonin on a separated rat's intestine; experiment: separated intestine with serotonin
[18] = tested on: phenamine stereotypy; experiment: phenamine stereotypy in rats
[19] = clinical: acute alcoholic abstinence; format: in vivo, patients; conditions: of 30 alcoholics; first two days; placebo 10 of 30
Excerpt: On the whole, the proposed preparation reduced the period of abstinence 2- to 3-fold.

[20] = solubility; format: physicochemical
Excerpt: Hydrazide of diphenylphosphinylacetic acid is a bitter-tasting odorless white crystalline powder. It is soluble in water (1:100), alcohol and chloroform, but insoluble in benzene and ether.

[21] = tested on: arecoline tremor; experiment: M-cholinolytic effect: arecoline tremor in mice; format: in vivo
[22] = cumulative effect; conditions: in vivo
[23] = tested on: hexenal, barbamil, urethane and chloral hydrate effect; experiment: interaction with narcotics and soporifics (hexenal, barbamil, urethane, chloral hydrate); format: in vivo
Excerpt: (§1) A dose as low as 1/5 DMT potentiates barbamil.

[24] = clinical: neurasthenia with vegetovascular dystonia; format: in vivo, patients
[25] = tested on: apomorphine toxicity and stereotypy; experiment: apomorphine toxicity and stereotypy; format: in vivo, mice
[26] = clinical safety on prolonged use; format: in vivo, patients
Excerpt: The proposed preparation can be used for treating both young and old patients, as well as those having concomitant diseases of internal organs.

[27] = acute toxicity / tolerance dose; conditions: in vivo
[28] = tested on: convulsant effects of corasole and caffeine; experiment: sensitivity of mice to the convulsant effects of corasole and caffeine; format: in vivo
[29] = prolonged treatment, anatomical and histological examination, rabbits; format: in vivo; conditions: intramuscular, 50 mg/kg
[30] = tested on: lethal dose of cocaine; experiment: lethal dose of cocaine in mice
[31] = tested on: cholinesterase; experiment: anticholinesterase properties
[32] = tested on: effects of nibuphin; experiment: synergism with nibuphin; conditions: in vivo
[33] = tested on: monoaminooxidaze; experiment: monoaminooxidaze suppression, inferred from hexenal sleep; format: in vivo; conditions: concluded from equal hexenal sleep at 2 and 22 hours
Excerpt: as §1

[34] = tested on: hypothermal effect of aminazine (chlorpromazine); experiment: hypothermal effect of aminazine (chlorpromazine); conditions: in vivo
[35] = prolonged treatment, anatomical and histological examination, mice; format: in vivo; conditions: intraperitoneal, 35 mg/kg (1/9 LD50)
[36] = tested on: epileptic seizures caused by microinjections of penicillin; experiment: epileptic seizures caused by microinjections of penicillin into the hippocamp; format: in vivo; conditions: rabbits, 20 to 100 mg/kg
Excerpt: as §2

[37] = clinical: hypothalamic syndrome with sympathoadrenal crises; format: in vivo, patients; conditions: of 20 cases
Excerpt: In 12 cases the number and intensity of fits were reduced and general improvement was observed. Earlier, all the patients had been repeatedly admitted to neurological hospitals where they were subjected to different forms of treatment, including drug therapy with the use of tranquilizers of the benzodiazepin derivatives. The effect of such treatment was quite moderate and unstable and was only manifest in a reduced number of fits and a slight improvement of the general state of the patients.

Structure (SMILES): COC(=O)[C@H]1[C@H]2C[C@@H]3c4[nH]c5cc(OC)ccc5c4CCN3C[C@H]2C[C@@H](OC(=O)c2cc(OC)c(OC)c(OC)c2)[C@@H]1OC [reserpine]
- sensitivity to convulsant effects of corasole and caffeine [1]: increases the sensitivity of mice

Structure (SMILES): [Mg+2].[O-2] [magnesia]
- effect of other treatments [2]: only a limited and short-lived effect

Structure (SMILES): NNC(=O)CP(=O)(c1ccccc1)c1ccccc1 [Hydrazide of diphenylphosphinylacetic acid]
- serotonin content in brain tissue [3]: decreases the serotonin content
- shelf life [4]: longer than two years
- chemical stability ([4]; powder and solution): chemically stable both in the form of powder and solution
- excretion of adrenalin and 17-oxycorticosteroids with urine [5]: pronounced normalization
- extraction of norepinephrine [5]: tendenecy towards a normalized extraction
- functions of sympathoadrenal and hypothalamohypophysioadrenal systems ([5]; course of treatment): normalized the functions
- local irritant effect [6]: no local irritant effect
- effect on analgetic effect of analginum ([7]; 1/2 DMT): intensified the analgetic effect of analginum
- effect on analgetic effect of morphine ([7]; 1/4 DMT): intensified the analgetic effect of morphine
- lowest dose with analgetic effect ([7]; mice): 1/4
- duration of analgetic effect ([7]; mice, 1/2 DMT): three hours
- duration of analgesia ([7]; mice, DMT): more than five hours
- effect on animals' behavior [8]: in no way affected the animals's behavior
- nicotine-induced convulsions [9]: relieve nicotine-induced convulsions in mice
- increase of survival rate ([9]; nicotine-induced convulsions): 50%
- sedative effect ([10]; animals): pronounced sedative effect
- lowest dose causing depression ([10]; mice and rats): 1/3
- depression (without "on-side" position) ([10]; mice and rats, tolerance doses, beginning with 1/3 DMT): causes depression in mice and rats
- prevention of convulsions [11]: does not prevent convulsions
- effect on orientating reaction [12]: affects the orientating reaction in mice
- tranquilizer strength ([13]; human, in vivo): relatively weak tranquilizer
- night sleep effect ([13]; neuroses): light night sleep compeller
- onset of sleep ([13]; neuroses): accelerates the onset of sleep
- efficacy versus known drugs ([13]; neurotic and psychic disorders with vegetovascular disturbances and epileptic fits without convulsions): superior in this respect to the known drugs
- side effects or complications ([13]; patients): no side effects or complications
- tolerance ([13]; patients): good tolerance
- relaxation effect ([13]; patients, versus benzodiazepin derivatives): absence to a marked relaxation effect
- effect on body temperature ([14]; 30 mg/kg (1/7 DMT)): no effect
- effect on body temperature ([14]; 60 mg/kg (printed 166 DMT)): no effect
- decrease of body temperature (hypothermal effect) ([14]; 1.5 hours): 4.3 °C
- decrease of body temperature (hypothermal effect) ([14]; 3 hours): 3.4 °C
- peripheral adrenolytic effect [15]: no peripheral adrenolytic effect
- dysphorias and patients' behavior ([16]; 18 cases): dysphorias were better endured, and the patients' behavior became more controlled
- electroencephalography ([16]; 18 cases): reduction in the paroxysmal activity and normalization of recordings
- cases in which attacks ceased completely or frequency reduced by more than half ([16]; of 18 cases): 14 cases
- antagonism of serotonin on separated intestine [17]: prevents the action of serotonin
- advent of phenamine stereotypy ([18]; great doses): prevents the advent
- duration of phenamine stereotypy ([18]; rats, 10 mg/kg to 400 mg/kg): statistically reliable reduction
- patients with considerable improvement [19]: 20
- solubility in alcohol ([20]; alcohol): soluble
- solubility in benzene ([20]; benzene): insoluble
- solubility in chloroform ([20]; chloroform): soluble
- solubility in ether ([20]; ether): insoluble
- effect on arecoline tremor ([21]; mice): does not mitigate arecoline tremor in mice
- effect on duration of arecoline tremor ([21]; mice): nor does it affect its duration
- M-cholinolytic effect ([21]; mouse, in vivo): no M-cholinolytic effect
- cumulative effect [22]: no cumulative effect
- lowest dose potentiating barbamil ([23]; barbamil): 1/5
- duration of hexenal sleep ([23]; hexenal given 2 and 22 hours after the preparation): induces sleep of equal duration
- potentiation of narcotics and soporifics ([23]; in vivo): potentiates hexenal, barbamil, urethane and chloral hydrate; also recorded: exhibits the properties of a true Brodie potentiator
- vegetovascular crises ([24]; 8 of 11 patients): reduced number or even complete eliminationn of vegetovascular crises
- patients with significant improvement ([24]; of 11 patients, end of the first week): 8 patients
- effect on toxicity of apomorphine ([25]; mice): does not intensify the toxicity of apomorphine in mice
- effect on duration of apomorphine stereotypy ([25]; mouse, in vivo): nor does it affect the duration of apomorphine stereotypy
- electrocardiography ([26]; 8 to 12 weeks): nor are there any changes that could be detected by electrocardiography
- morphological and biochemical composition of the blood ([26]; 8 to 12 weeks): does not change the morphological and biochemical composition of the blood
- habit formation ([26]; clinical): not habit-forming
- toxicity ([26]; clinical): low toxicity
- contraindication ([26]; human, in vivo): gastric ulcer with a tendency to frequency exacerbations
- impediment to drivers ([26]; human, in vivo): no impediment to drivers
- side effects or complications ([26]; prolonged administration): no side effects or complications
- toxicity [27]: limited toxicity
- LD50 ([27]; iv, injected intravenously, species not given): 293 mg/kg
- MTD ([27]; mouse, mice, read-out: DMT (tolerance dose)): 200 mg/kg
- sensitivity to convulsant effects of corasole and caffeine [28]: increases the sensitivity of mice
- changes in blood and internal organs [29]: no changes in the blood and internal organs
- prevention of death of mice [30]: 60%
- anticholinesterase properties [31]: do not possess anticholinesterase properties
- synergism with nibuphin [32]: synergism
- suppression of monoaminooxidaze activity [33]: does not suppress the monoaminooxidaze activity
- effect on hypothermal effect of aminazine (chlorpromazine) [34]: intensifies the hypothermal effect
- changes in blood and internal organs [35]: no changes in the blood and internal organs
- epileptic seizures [36]: prevents or reduces the frequency of epileptic seizures
- cases with marked improvement (crises ceased, working capacity restored) [37]: 5 cases
- cases with number and intensity of fits reduced and general improvement [37]: 12 cases

Structure (SMILES): CNC1=Nc2ccc(Cl)cc2C(c2ccccc2)=[N+]([O-])C1 [chlorodiazepoxide]
- vegetotropic and antiepileptic effect [2]: most pronounced vegetotropic and antiepileptic effect
- relaxing effect and sluggishness [2]: manifest a relaxing effect and produce sluggishness

Structure (SMILES): CCN(CC)CCOC(=O)c1ccc(N)cc1 [novocain]
- effect of other treatments [2]: only a limited and short-lived effect

Structure (SMILES): CN1C(=O)CN=C(c2ccccc2)c2cc(Cl)ccc21 [diazepam]
- vegetotropic and antiepileptic effect [2]: most pronounced vegetotropic and antiepileptic effect
- relaxing effect and sluggishness [2]: manifest a relaxing effect and produce sluggishness
